What all share (format): physicochemical
Series [1] in a line: Measurement of fluorescence internal quantum yield (absolute PL quantum yield measuring apparatus). The conditions noted are these: for Fluorescence quantum yield Φf: in chloroform or tetrahydrofuran, excitation at one-photon absorption peak, measured 350-650 nm; for Fluorescence property: stated in words. The source says:
The compound A also tends to emit fluorescent light. The wavelength of fluorescent light emitted by the compound A may be 405 nm or more and 660 nm or less and, in some cases, may be 300 nm or more and 650 nm or less. The quantum yield Φf of fluorescence in the compound A may be 0.05 or more, 0.1 or more, or 0.5 or more. The upper limit of the quantum yield Φf of fluorescence of the compound A is not particularly limited and is, for example, 0.99. In the present specification, the “quantum yield” specifically means internal quantum yield. The quantum yield of fluorescence can be measured by, for example, a commercially available absolute PL quantum yield measuring apparatus.
The compounds of Examples and Comparative Examples were measured for fluorescence internal quantum yield. The measurement sample was prepared by dissolving a compound in a chloroform (CLF) solvent or a tetrahydrofuran (THF) solvent. In the measurement, an absolute PL quantum yield measuring apparatus (C9920-02, manufactured by Hamamatsu Photonics K.K.) was used. The excitation wavelength was set to the peak wavelength of the one-photon absorption of the compound. The measurement wavelength was appropriately adjusted within a range of 350 nm or more and 650 nm or less so as not to overlap with the absorption wavelength band of the compound. As a reference, the solvent used for dissolving the compound was used. As described above, the fluorescence quantum yields of the compounds of Examples 1 and 2 and the compounds of Comparative Examples 1 and 4 to 6 were measured.

Another series is described as follows: Solubility in chloroform. Conditions: chloroform as solvent. The text has this:
Unsubstituted truxene is a hydrocarbon compound that is nonpolar and has a high planarity. Unsubstituted truxene corresponds to the compound of the above formula (1) in which R^1 to R^6 are hydrogen atoms. In the present specification, the unsubstituted truxene may be simply called truxene. In truxene, […] stacking of the molecules is likely to occur, and the solubility in a solvent or resin monomer tends to be low. For example, when chloroform is used as the solvent, the solubility of truxene is about several mmol/L. When the concentration of truxene in a material is high, truxene molecules come close to each other and are assembled in various forms. Consequently, multiple new levels are formed at positions with energies lower than the lowest one-photon-allowed state of truxene itself. Accordingly, tailing of a peak derived from one-photon absorption can be verified by measuring the one-photon absorption spectrum of the material including truxene at a high concentration. In contrast, in the compound A represented by the formula (1) in which R^1 to R^6 are hydrocarbon groups, it tends to suppress the formation of assembly of compound molecules without substantially changing the size of the π C electron conjugated system of truxene. […]

Series [2] is described as follows: Measurement of two-photon absorption cross-section by the Z-scan method, light of 405 nm. Conditions: light of wavelength 405 nm; for Two-photon absorption cross-section σ: titanium sapphire pulsed laser second harmonic, 80 fs, 1 kHz. The text has this: The two-photon absorption cross-section of the compound A for light having a wavelength of 405 nm may be higher than 1 GM or 10 GM or more. The upper limit of the two-photon absorption cross-section of the compound A is not particularly limited and is, for example, 1000 GM. The two-photon absorption cross-section can be measured by, for example, the Z-scan method described in J. Opt. Soc. Am. B, 2003, Vol. 20, p. 529. The Z-scan method is broadly used as a method for measuring a nonlinear optical constant. In the Z-scan method, a measurement sample is moved along the irradiation direction of a laser beam near the focal point where the beam is focused. On this occasion, the change in the amount of light permeated through the measurement sample is recorded. In the Z-scan method, the power density of incident light changes depending on the position of the measurement sample. Accordingly, when the measurement sample performs nonlinear light absorption, if the measurement sample is located near the focal point of the laser beam, the amount of the transmitted light is attenuated. The two-photon absorption cross-section can be calculated by fitting the change of the amount of transmitted light to a theoretical curve predicted by the intensity of incident light, the thickness of the measurement sample, the concentration of the compound A in the measurement sample, and so on.
The compounds of Examples and Comparative Examples were measured for the two-photon absorption cross-section for light having a wavelength of 405 nm. The measurement of the two-photon absorption cross-section was performed using the Z-scan method described in J. Opt. Soc. Am. B, 2003, Vol. 20, p. 529. As the light source for measuring the two-photon absorption cross-section, a titanium sapphire pulsed laser was used. Specifically, each sample was irradiated with the second harmonic of the titanium sapphire pulsed laser. The pulse width of the laser was 80 fs. The repetition frequency of the laser was 1 kHz. The average power of the laser was changed within a range of 0.01 mW or more and 0.08 mW or less. The light from the laser was light having a wavelength of 405 nm. […] As described above, the two-photon absorption cross-sections of the compounds of Examples 1 and 2 and the compounds of Comparative Examples 1 and 4 to 6 were measured.

Series [3] can be described thus: Measurement of molar absorption coefficient at 405 nm (JIS K0115:2004). The conditions noted are these: wavelength 405 nm; compound concentration 100 to 500 mmol/L in solvent. The text has this: The molar absorption coefficient of the compound A for light having a wavelength of 405 nm may be 100 mol^−1·L·cm^−1 or less, 10 mol^−1·L·cm^−1 or less, 1 mol^−1·L·cm^−1 or less, or 0.1 mol^−1·L·cm^−1 or less. The lower limit of the molar absorption coefficient of the compound A is not particularly limited and is, for example, 0.00001 mol^−1·L·cm^−1. The molar absorption coefficient can be measured by, for example, a method in accordance with the provision of Japanese Industrial Standards (JIS) K0115:2004. The measurement of molar absorption coefficient uses a light source that irradiates light with a photon density to hardly cause two-photon absorption by the compound A. Furthermore, in the measurement of molar absorption coefficient, the concentration of the compound A is adjusted to 100 mmol/L or more and 500 mmol/L or less. This concentration is very high compared to the concentration in a measurement test of the molar absorption coefficient of a light absorption peak. The molar absorption coefficient can be used as an index of one-photon absorption.
The compounds of Examples and Comparative Examples were measured for the molar absorption coefficient by a method in accordance with the provision of JIS K0115:2004. Specifically, first, as a measurement sample, a solution in which a compound was dissolved in a solvent was prepared. The concentration of the compound in the solution was appropriately adjusted within a range of 100 mmol/L or more and 500 mmol/L or less according to the absorbance at a wavelength of 405 nm of the compound as the target for measurement. Then, the absorption spectrum of the measurement sample was measured. The absorbance at a wavelength of 405 nm was read from the obtained spectrum. The molar absorption coefficient was calculated based on the concentration of the compound in the measurement sample and the optical path length of the cell used for the measurement. As described above, the molar absorption coefficients of the compounds of Examples 1 and 2 and the compounds of Comparative Examples 1 and 4 to 6 were measured.

Series [4] can be described thus: Solubility in the solvent when preparing samples for optical characteristics. The conditions noted are these: measurement solvent; sample could not be prepared. As to the method: (§1) The compounds of Examples and Comparative Examples were measured for optical characteristics by the following methods. […] Measurement of two-photon absorption cross-section
A short description of series [5]: Stability for light having a wavelength in a short wavelength region. The conditions noted are these: short wavelength region (390-420 nm); optical characteristics could not be measured. As to the method:
as §1

Like-named read-outs stand apart in the source and are kept apart here.

The solubility is how much of the substance goes into solution per volume. Regarding `c1ccc2c(c1)Cc1c-2c2c(c3c1-c1ccccc1C3)-c1ccccc1C2` [Comparative Example 1, 10,15-dihydro-5H-diindeno[1,2-a:1′,2′-c]fluorene], in series [1], the “Fluorescence quantum yield Φf” value is 0.1. In addition, the solubility entry in “Solubility in chloroform” is “about several”. Moreover, in series [2] (σ in GM over ε in mol^−1·L·cm^−1), the “Ratio σ/ε” value worked out at 8. In series [3], the “Molar absorption coefficient ε” value amounted to 24 L/mol/cm.
As to `O=c1c2ccccc2c2c1c1c3ccccc3c(=O)c1c1c3ccccc3c(=O)c21` [Comparative Example 2, 5H-diindeno[1,2-a:1′,2′-c]fluorene-5,10,15-trione], in series [4], the “Solubility in the solvent (sample for measuring optical characteristics)” value was “low solubility”.
For the molecule `c1ccc2c(c1)[nH]c1c2c2[nH]c3ccccc3c2c2[nH]c3ccccc3c12` [Comparative Example 3, 10,15-dihydro-5H-5,10,15-triaza-diindeno[1,2-a:1′,2′-c]fluorene], in series [5], the “Stability for light having a wavelength in a short wavelength region” value is “low stability”.
Regarding `C(#Cc1c(C#Cc2ccccc2)c(C#Cc2ccccc2)c(C#Cc2ccccc2)c(C#Cc2ccccc2)c1C#Cc1ccccc1)c1ccccc1` [Comparative Example 4, Hexakis(phenylethynyl)benzene], in series [2], the “Two-photon absorption cross-section σ” value was found to be 23000 GM. The “Molar absorption coefficient ε” value in series [3] amounted to 2730 L/mol/cm.
Consider `COc1cc(-c2ccc(-c3ccc(C(=O)c4ccc(OCCOCCOC(C)=O)c(OCCOCCOC(C)=O)c4)cc3)c(OC)c2)ccc1-c1ccc(C(=O)c2ccc(OCCOCCOC(C)=O)c(OCCOCCOC(C)=O)c2)cc1` [Comparative Example 5], for which the “Fluorescence quantum yield Φf” value in series [1] came to 0. Also, in series [2], the “Two-photon absorption cross-section σ” value came out at 570 GM. For the same molecule, the “Molar absorption coefficient ε” value in series [3] worked out at 35 L/mol/cm.
As for `OC(C#Cc1ccc(N(c2ccc(C#CC(O)(c3ccccc3)c3ccccc3)cc2)c2ccc(C#CC(O)(c3ccccc3)c3ccccc3)cc2)cc1)(c1ccccc1)c1ccccc1` [Comparative Example 6], the “Fluorescence quantum yield Φf” value in series [1] came to 0.3. In series [2], the “Two-photon absorption cross-section σ” value is listed as 380 GM. Moreover, the “Molar absorption coefficient ε” value in series [3] was determined as 70 L/mol/cm.
As for `CC1(C)c2ccccc2-c2c1c1c(c3c2C(C)(C)c2ccccc2-3)C(C)(C)c2ccccc2-1` [Example 1, 10,15-dihydro-5,5,10,10,15,15-hexamethyl-5H-diindeno[1,2-a:1′,2′-c]fluorene], in series [1], the “Fluorescence quantum yield Φf” value is 0.1 and the Fluorescence property entry is listed as “had a fluorescence property”. In the series “Solubility in chloroform” (organic solvent or mixture, read-out: Solubility), the solubility is at least 100 mM. The “Two-photon absorption cross-section σ” value in series [2] is reported as 40 GM. Besides, the “Molar absorption coefficient ε” value in series [3] came out at 0.04 L/mol/cm.
With `CCC1(CC)c2ccccc2-c2c1c1c(c3c2C(CC)(CC)c2ccccc2-3)C(CC)(CC)c2ccccc2-1` [Example 2, 10,15-dihydro-5,5,10,10,15,15-hexaethyl-5H-diindeno[1,2-a:1′,2′-c]fluorene], in series [1], the “Fluorescence quantum yield Φf” value worked out at 0.1 and the Fluorescence property result is given as “had a fluorescence property”. Moreover, the “Two-photon absorption cross-section σ” value in series [2] was 43 GM. Further, the “Molar absorption coefficient ε” value in series [3] was found to be 0.08 L/mol/cm.

The record behind these values is patent US20240062782A1, “NONLINEAR LIGHT ABSORPTION MATERIAL, RECORDING MEDIUM, METHOD FOR RECORDING INFORMATION, AND METHOD FOR READING INFORMATION” (Panasonic Intellectual Property Management Co., Ltd., priority 2021, published 2024).
